Data reported in the NIST ThermoML archive (doi:10.1021/je049626l).
Several values for one entry are separate records, joined by “and”; a condition that tells them apart may be missing. Identical values can stand only once.

How the values were obtained:
[1] = Crystal; for Normal melting temperature: DTA
[2] = molar enthalpy of vaporization or sublimation; details: Liquid, DSC

CC(Oc1ccc(Cl)cc1Cl)C(=O)O (configuration not stated) [2-(2,4-dichlorophenoxy)propanoic acid]
Details | molar enthalpy [kcal/mol] | vapor or sublimation pressure
[1], 343 K | – | 0.000157 kPa
[1], 347 K | – | 0.000267 kPa and 0.000297 kPa
[1], 352 K | – | 0.000551 kPa
[1], 353 K | – | 0.000503 kPa
[1], 356 K | – | 0.000764 kPa and 0.000708 kPa
[1], 358 K | – | 0.000849 kPa
[1], 359 K | – | 0.000912 kPa
[1], 360 K | – | 0.00126 kPa
[1], 361 K | – | 0.00126 kPa and 0.00153 kPa
[1], 364 K | – | 0.00223 kPa
[1], 365 K | – | 0.00208 kPa
[1], 366 K | – | 0.00252 kPa and 0.00339 kPa
[1], 368 K | – | 0.00361 kPa
[1], 370 K | – | 0.00445 kPa
[1], 371 K | – | 0.00481 kPa
[1], 372 K | – | 0.00472 kPa
[1], 374 K | – | 0.00721 kPa
[1], 375 K | – | 0.00692 kPa
[2], 466.7 K | 18.2 | –
[2], 474 K | 18.2 | –
[2], 477.9 K | 18.2 | –

Details | Normal melting temperature [°C]
[1] | 116.6

COC(=O)COc1ccc(Cl)cc1Cl [methyl 2,4-dichlorophenoxyethanoate]
Details | Normal melting temperature [°C]
[1] | 37.6

[2]
Details | molar enthalpy [kcal/mol]
415.2 K | 14.1
424.4 K | 14.3
430.4 K | 14.3

O=C(O)CCCOc1ccc(Cl)cc1Cl [4-(2,4-dichlorophenoxy)butanoic acid]
Details | molar enthalpy [kcal/mol] | vapor or sublimation pressure
[1], 356.5 K | – | 8.48e-05 kPa
[1], 358 K | – | 0.000106 kPa
[1], 359.5 K | – | 0.000127 kPa
[1], 360 K | – | 0.000148 kPa and 0.000157 kPa
[1], 361 K | – | 0.000148 kPa
[1], 361.5 K | – | 0.00017 kPa
[1], 362.5 K | – | 0.000191 kPa
[1], 363 K | – | 0.000212 kPa and 0.000252 kPa
[1], 363.5 K | – | 0.000212 kPa and 0.000233 kPa
[1], 365.5 K | – | 0.000255 kPa
[1], 366.5 K | – | 0.000297 kPa
[1], 367 K | – | 0.000339 kPa
[1], 367.5 K | – | 0.000377 kPa
[1], 368 K | – | 0.000382 kPa
[1], 369 K | – | 0.000467 kPa
[1], 369.5 K | – | 0.000445 kPa
[1], 370 K | – | 0.000488 kPa and 0.000467 kPa
[1], 372 K | – | 0.000721 kPa
[1], 372.5 K | – | 0.000679 kPa and 0.000636 kPa
[1], 373 K | – | 0.000764 kPa and 0.000786 kPa
[1], 374 K | – | 0.000806 kPa
[1], 375 K | – | 0.000933 kPa and 0.00106 kPa
[1], 377 K | – | 0.00106 kPa and 0.00123 kPa
[1], 377.5 K | – | 0.00123 kPa
[1], 378 K | – | 0.00138 kPa and 0.0017 kPa
[1], 380 K | – | 0.00161 kPa
[1], 381 K | – | 0.00229 kPa
[1], 382 K | – | 0.00221 kPa
[1], 383 K | – | 0.00297 kPa and 0.00283 kPa
[1], 384 K | – | 0.00297 kPa
[1], 386 K | – | 0.00369 kPa and 0.0044 kPa
[1], 386.5 K | – | 0.00365 kPa
[1], 387 K | – | 0.00458 kPa
[1], 389 K | – | 0.00539 kPa
[1], 389.5 K | – | 0.00526 kPa
[1], 391 K | – | 0.0067 kPa and 0.00666 kPa
[2], 485.7 K | 19.4 | –
[2], 495 K | 19.4 | –
[2], 501.1 K | 19.4 | –

Details | Normal melting temperature [°C]
[1] | 120.1

COC(=O)CCCOc1ccc(Cl)cc1Cl [butanoic acid, 4-(2,4-dichlorophenoxy)-, methyl ester]
Details | Normal melting temperature [°C]
[1] | 35.0

[2]
Details | molar enthalpy [kcal/mol]
456 K | 15.8
463.4 K | 16.3
469.8 K | 16.3

O=C(O)COc1ccc(Cl)cc1Cl [2,4-dichlorophenoxyethanoic acid]
Details | molar enthalpy [kcal/mol] | vapor or sublimation pressure
[1], 346 K | – | 8.48e-05 kPa
[1], 348 K | – | 0.000157 kPa
[1], 348.5 K | – | 0.000127 kPa
[1], 351 K | – | 0.00017 kPa
[1], 351.5 K | – | 0.000127 kPa
[1], 352 K | – | 0.000212 kPa
[1], 353 K | – | 0.000255 kPa and 0.000314 kPa
[1], 354.5 K | – | 0.000276 kPa and 0.000212 kPa
[1], 357 K | – | 0.000472 kPa
[1], 357.5 K | – | 0.000382 kPa
[1], 358 K | – | 0.000318 kPa
[1], 358.5 K | – | 0.000382 kPa
[1], 360 K | – | 0.000445 kPa and 0.000629 kPa
[1], 360.5 K | – | 0.000488 kPa
[1], 361 K | – | 0.000551 kPa
[1], 361.5 K | – | 0.000573 kPa
[1], 362.5 K | – | 0.000573 kPa
[1], 363 K | – | 0.000721 kPa and 0.000679 kPa
[1], 364.5 K | – | 0.000806 kPa
[1], 365.5 K | – | 0.000933 kPa and 0.00126 kPa
[1], 366 K | – | 0.000976 kPa and 0.000848 kPa
[1], 369 K | – | 0.00132 kPa and 0.0014 kPa and 0.0011 kPa
[1], 370 K | – | 0.00136 kPa and 0.00204 kPa
[1], 370.5 K | – | 0.00153 kPa
[1], 371 K | – | 0.0017 kPa
[1], 373 K | – | 0.00174 kPa
[1], 374 K | – | 0.00255 kPa
[1], 375 K | – | 0.00255 kPa and 0.00212 kPa
[1], 375.5 K | – | 0.00229 kPa
[1], 377 K | – | 0.00297 kPa
[1], 378 K | – | 0.00293 kPa and 0.00481 kPa
[1], 379 K | – | 0.00361 kPa
[1], 379.5 K | – | 0.00344 kPa
[1], 380.5 K | – | 0.00386 kPa
[1], 383.5 K | – | 0.00509 kPa
[1], 385 K | – | 0.00594 kPa
[1], 386 K | – | 0.00628 kPa
[1], 387 K | – | 0.0067 kPa
[2], 479.1 K | 18.2 | –
[2], 489.5 K | 18.2 | –
[2], 503.3 K | 18.4 | –

Details | Normal melting temperature [°C]
[1] | 141.4
